The record followed here is patent US9783505B2, “Substituted diaminopyrimidyl compounds, compositions thereof, and methods of treatment therewith” (Signal Pharmaceuticals, LLC, priority 2013, dated 2017).

Molecules are shown by their SMILES.

T1 sequence (Q04759 whole entry): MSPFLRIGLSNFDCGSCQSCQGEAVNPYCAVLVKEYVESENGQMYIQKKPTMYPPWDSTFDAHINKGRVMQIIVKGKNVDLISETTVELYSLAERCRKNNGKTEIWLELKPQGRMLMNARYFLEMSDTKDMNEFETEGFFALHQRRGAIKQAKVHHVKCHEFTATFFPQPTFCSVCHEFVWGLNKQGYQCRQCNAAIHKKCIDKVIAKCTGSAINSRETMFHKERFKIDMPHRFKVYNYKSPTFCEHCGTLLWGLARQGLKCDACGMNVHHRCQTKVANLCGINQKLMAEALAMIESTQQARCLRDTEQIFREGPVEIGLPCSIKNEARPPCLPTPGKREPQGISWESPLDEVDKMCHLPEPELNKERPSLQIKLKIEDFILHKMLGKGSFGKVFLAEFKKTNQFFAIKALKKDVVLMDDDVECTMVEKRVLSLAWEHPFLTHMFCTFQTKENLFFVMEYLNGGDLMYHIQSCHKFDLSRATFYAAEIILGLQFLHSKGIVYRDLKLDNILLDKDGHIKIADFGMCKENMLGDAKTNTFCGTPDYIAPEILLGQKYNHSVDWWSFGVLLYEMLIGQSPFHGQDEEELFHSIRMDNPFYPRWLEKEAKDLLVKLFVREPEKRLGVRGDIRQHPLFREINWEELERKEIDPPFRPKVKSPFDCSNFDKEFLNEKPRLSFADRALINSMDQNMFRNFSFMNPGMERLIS

The first assay concerns the target T1, His-PKC-theta (Homo sapiens, UniProt Q04759).
T1 construct: His; purchased Invitrogen
The assay can be described thus: PKC-theta Assay (384-well time resolved fluorescence, IMAP TR-FRET). Type of assay: biochemical. The conditions noted are these: Table 2; read-out: Act. Level (IC50 in the PKC-theta Assay). As to the method: PKC-theta Assay. A 384-well time resolved fluorescence assay was used to monitor PKC-theta activity. The PKC-theta assay was run in the following assay buffer: 50 mM HEPES pH 7.6, 10 mM MgCl2, 1 mM DTT, 0.01% Triton X-100, 0.01% BSA and 0.1 mM EDTA. To initiate the reaction, 200 nM of Fam-labeled S6-derived peptide (Molecular Devices) and 10 μM of ATP were mixed with 142 pM of His-PKC-theta (Invitrogen) for a total assay volume of 25 μL in each well. The assay was incubated at room temperature for 2 hours and terminated using a 60 μL/well mixture of Detection Binding Solution: 70% IMAP Progressive Binding Buffer A, 30% IMAP Progressive Binding Buffer B, 1:600 Progressive Binding Reagent, and 1:400 TR-FRET Tb Donor (Molecular Devices). The assay plates were then incubated overnight at room temperature and read on a Perkin-Elmer Envision Reader.
The term IC50 denotes the concentration at which inhibition is half-maximal. Turning to `CC1(C)C[C@H](Nc2nc(NCCc3cccc(Cl)c3F)ncc2C#N)CC[C@@H]1O` [Cmpd 87], the IC50 was under 100 nM.
Same read-out and setting: as for `CC(F)(F)COc1ccccc1CCNc1ncc(C#N)c(N[C@@H]2CC[C@H](O)C(C)(C)C2)n1` [Cmpd 152], the figure is 800 to 2000 nM; as for `CC1(C)C[C@H](Nc2nc(NCCc3ccc(C#N)c(Br)c3)ncc2C#N)CC[C@@H]1O` [Cmpd 146], under 100 nM; as for `CN(C)c1ccc(CCNc2ncc(C#N)c(N[C@@H]3CC[C@H](O)C(C)(C)C3)n2)cc1` [Cmpd 129], 100 to 800 nM.
The same measure, in the same setting: as for `CC1(C)[C@@H](O)C[C@H]1Nc1nc(NCC(F)(F)c2ccccc2)ncc1C#N` [Cmpd 43], the figure is 100 to 800 nM; as for `CC1(C)C[C@H](Nc2nc(NCCc3ccccc3C(F)(F)F)ncc2C#N)CC[C@@H]1O` [Cmpd 97], 100 to 800 nM.
The same measure, in the same setting: under `COc1cc(CCNc2ncc(C#N)c(N[C@@H]3CC[C@H](O)C(C)(C)C3)n2)ccc1C#N` [Cmpd 137] stands 100 to 800 nM.
Regarding `CC1(C)C[C@H](Nc2nc(NCCc3cccc(Cl)c3)ncc2C#N)CC[C@@H]1O` [Cmpd 32], the IC50 is under 100 nM.
Still for that read-out and setting: under `CCOc1cccc(F)c1CNc1ncc(C#N)c(N[C@H]2CC[C@@H](O)CC2)n1` [Cmpd 23] stands 2000 to 10000 nM; under `CC1(C)C[C@H](Nc2nc(NCCc3cccc(-c4ccccc4)c3)ncc2C#N)CC[C@@H]1O` [Cmpd 58], 800 to 2000 nM; under `CC1(C)[C@@H](O)C[C@H]1Nc1nc(NCCc2ccc(C#N)c(C(F)(F)F)c2)ncc1C#N` [Cmpd 141], 100 to 800 nM.
For `CC1(C)C[C@H](Nc2nc(NCCc3cccc(C#N)c3)ncc2C#N)CC[C@@H]1O` [Cmpd 166], the 50% inhibitory concentration (IC50) was 800 to 2000 nM.
`N#Cc1cnc(NCCc2cccc(Cl)c2)nc1N[C@H]1C[C@@H](O)C1` [Cmpd 70]: the IC50 lay in the range of 800 to 2000 nM.
The same measure, in the same setting: under `CC1(C)[C@@H](O)C[C@H]1Nc1nc(NCCc2ccccc2)ncc1C#N` [Cmpd 149] stands 100 to 800 nM; under `CC(O)(CNc1ncc(C#N)c(N[C@@H]2CC[C@H](O)C(C)(C)C2)n1)c1ccccc1` (stereo partly shown) [Cmpd 56], 800 to 2000 nM; under `CC1(C)[C@@H](O)C[C@H]1Nc1nc(NCCc2ccc(-c3ccccc3)cc2)ncc1C#N` [Cmpd 111], 100 to 800 nM.
Still for that read-out and setting: as for `CC1(C)C[C@H](O)CC[C@H]1Nc1nc(NCCc2cccc(Cl)c2)ncc1C#N` [Cmpd 188], the figure is 100 to 800 nM; as for `CC1(C)C[C@H](Nc2nc(NCCc3cccc(S(C)(=O)=O)c3)ncc2C#N)CC[C@@H]1O` [Cmpd 173], 100 to 800 nM; as for `CC1(C)C[C@H](Nc2nc(NCCc3ccc(S(N)(=O)=O)c(Cl)c3)ncc2C#N)CC[C@@H]1O` [Cmpd 186], under 100 nM.
On to `N#Cc1cnc(NCc2c(F)cccc2Cl)nc1N[C@H]1CC[C@@H](O)CC1` [Cmpd 16], for which the IC50 fell in the range of 100 to 800 nM.
Still for that read-out and setting: as for `CC(C)(CNc1ncc(C#N)c(N[C@@H]2C[C@H](O)C2(C)C)n1)c1cccc(Cl)c1` [Cmpd 40], the figure is 2000 to 10000 nM.
Same read-out and setting: as for `Cc1ncc(-c2ccc(CCNc3ncc(C#N)c(N[C@@H]4CC[C@H](O)C(C)(C)C4)n3)cc2)s1` [Cmpd 64], the figure is under 100 nM.
On the same count and under the same terms, under `Cc1cc(C)n(-c2ccc(CCNc3ncc(C#N)c(N[C@@H]4C[C@H](O)C4(C)C)n3)cc2)n1` [Cmpd 121] stands 800 to 2000 nM; under `CC1(C)C[C@H](Nc2nc(NCCc3ccc(C#N)c(Cl)c3)ncc2C#N)CC[C@@H]1O` [Cmpd 139], 100 to 800 nM.
For `CC1(C)[C@@H](O)C[C@H]1Nc1nc(NCCc2ccccc2O)ncc1C#N` [Cmpd 108], the IC50 was 800 to 2000 nM.
As for `CC1(C)C[C@H](Nc2nc(NCCc3ccc(C(F)(F)F)cc3)ncc2C#N)CC[C@@H]1O` [Cmpd 99], the IC50 is 100 to 800 nM.
Same read-out and setting: as for `CC1(C)C[C@H](Nc2nc(NCCc3ccc(OC(F)(F)F)cc3)ncc2C#N)CC[C@@H]1O` [Cmpd 53], the figure is 100 to 800 nM.
As for `CC1(C)[C@@H](O)C[C@H]1Nc1nc(NCCc2cc(C(F)(F)F)cc(C(F)(F)F)c2)ncc1C#N` [Cmpd 125], the IC50 is 100 to 800 nM.
As to `N#Cc1cnc(NCc2ccccc2)nc1N[C@H]1CC[C@@H](O)CC1` [Cmpd 28], the IC50 is 2000 to 10000 nM.
Still for that read-out and setting: under `CN(C)C(=O)c1cccc(CCNc2ncc(C#N)c(N[C@@H]3CC[C@H](O)C(C)(C)C3)n2)c1` [Cmpd 61] stands 2000 to 10000 nM; under `CC1(C)C[C@H](Nc2nc(NCCc3ccc(C#N)c(F)c3)ncc2C#N)CC[C@@H]1O` [Cmpd 148], 100 to 800 nM.
Still for that read-out and setting: under `N#Cc1cnc(NCCc2ccc(-n3ccnc3)c(F)c2)nc1N[C@H]1CC[C@@H](C(N)=O)CC1` [Cmpd 195] stands under 100 nM.

Staying with this assay, now noted: read-out: Act. Level (IC50 in the PKC-theta Assay).
For the compound `CC1(C)[C@H](O)C[C@@H]1Nc1nc(NCc2c[n+]([O-])ccc2C(F)(F)F)ncc1C(F)(F)F` [Cmpd 136], the IC50 lay in the range of 100 to 800 nM.
On to `CC(C)c1ncncc1CNc1ncc(C(F)(F)F)c(N[C@@H]2C[C@H](O)C2(C)C)n1` [Cmpd 20], for which the IC50 is under 100 nM.
The same measure, in the same setting: under `COc1cccc2[nH]cc(CCNc3ncc(C#N)c(N[C@@H]4CC[C@H](O)C(C)(C)C4)n3)c12` [Cmpd 175] stands 100 to 800 nM.
On the same count and under the same terms, under `N#Cc1cnc(NCCC2C(=O)Nc3ccccc32)nc1N[C@H]1CC[C@@H](C(N)=O)CC1` (stereo partly shown) [Cmpd 179] stands under 100 nM; under `N#Cc1cnc(NCCC2(O)C(=O)Nc3ccccc32)nc1N[C@H]1CC[C@@H](O)CC1` (stereo partly shown) [Cmpd 162], 2000 to 10000 nM.
On the same count and under the same terms, as for `CC1(C)[C@@H](O)C[C@H]1Nc1nc(NCc2cncnc2OCCC(F)(F)F)ncc1C(F)(F)F` [Cmpd 2], the figure is under 100 nM.
Turning to `CNC(=O)[C@H]1CC[C@@H](Nc2nc(NCc3cnccc3C(F)(F)F)ncc2C#N)CC1` [Cmpd 68], the IC50 is under 100 nM.
Still for that read-out and setting: under `CC1(C)[C@H](CO)C[C@@H]1Nc1nc(NCc2cnccc2C(F)(F)F)ncc1C(F)(F)F` [Cmpd 91] stands 100 to 800 nM.
For the compound `CC1(C)C[C@H](Nc2nc(NCc3cncnc3OCC(F)F)ncc2C#N)CC[C@@H]1O` [Cmpd 34], the IC50 is under 100 nM.
The same measure, in the same setting: as for `N#Cc1cnc(NCc2cncnc2-c2ccccc2)nc1N[C@H]1CC[C@@H](O)CC1` [Cmpd 52], the figure is under 100 nM.
Same read-out and setting: under `CC1(C)[C@@H](O)C[C@H]1Nc1nc(NCc2c[n+]([O-])ccc2C(F)(F)F)ncc1C(F)(F)F` [Cmpd 41] stands under 100 nM.
Same read-out and setting: as for `O[C@H]1CC[C@@H](Nc2nc(NCc3cncnc3-c3ccccc3)ncc2C(F)(F)F)CC1` [Cmpd 76], the figure is under 100 nM; as for `C[C@]1(O)CC[C@@H](Nc2nc(NCc3cncnc3C(F)(F)F)ncc2C#N)CC1` [Cmpd 106], 100 to 800 nM; as for `Cc1ccc(CCNc2ncc(C#N)c(N[C@@H]3CC[C@H](O)C(C)(C)C3)n2)cn1` [Cmpd 197], 800 to 2000 nM.
As to `CC1(C)C[C@H](Nc2nc(NCCc3c[nH]c4ccc(OC(F)(F)F)cc34)ncc2C#N)CC[C@@H]1O` [Cmpd 171], the IC50 was 2000 to 10000 nM.
Consider `CC1(C)[C@H](CO)C[C@@H]1Nc1nc(NCc2c[n+]([O-])ccc2C(F)(F)F)ncc1C(F)(F)F` [Cmpd 141], for which the IC50 was 800 to 2000 nM.
Still for that read-out and setting: under `CC1(C)C[C@H](Nc2nc(NCCc3c[nH]c4ccc(Cl)cc34)ncc2C#N)CC[C@@H]1O` [Cmpd 169] stands 100 to 800 nM; under `CC(F)(F)COc1ncncc1CNc1ncc(C#N)c(N[C@H]2CC[C@@](C)(C(N)=O)CC2)n1` [Cmpd 160], under 100 nM; under `N#Cc1cnc(NCCc2c[nH]c3cc(F)ccc23)nc1N[C@H]1CC[C@@H](O)CC1` [Cmpd 165], 800 to 2000 nM.
On the same count and under the same terms, under `CC1(C)[C@H](O)C[C@@H]1Nc1nc(NCc2cncnc2OCCC(F)(F)F)ncc1C#N` [Cmpd 89] stands under 100 nM.
